The source of these data is patent publication US10561657B2, “Pyrrolopyrimidine compound” (CENTAURUS BIOPHARMA CO., LTD., priority 2014, dated 2020).

Data set [1] is described as follows: Pharmacokinetic assay in adult female SD rats (30 mg/kg oral). The format is in vivo. Conditions: female, Sprague-Dawley, rat, plasma, po, 30 mg/kg.
The next data set relates to Ba/F3-JAK2V617F tumor. As to the kind of experiment: Efficacy in mouse subcutaneous xenograft tumor model. The format is in vivo, Balb/c nude mice. Conditions: for TGI (%) 3 d: day 3; for TGI (%) 7 d: day 7; for TGI (%) 10 d: day 10; for TGI (%) 14 d: day 14. Here is the method: 3. Assay for Efficacy in Mouse Subcutaneous Xenograft Tumor Model SPF grade Balb/c nude mice are female and 5-6 weeks old. 0.1 mL of the suspension of Ba/F3-JAK2V617F cells in serum-free culture medium (containing 1×10^7 cells, 50% MatriGel) was subcutaneously injected into right flank of each mouse. When the average tumor volume reached about 500 mm^3, the tumor-bearing mice were sacrificed. The tumor tissues were aseptically picked up, and cut into small pieces, which were subcutaneously implanted into both flanks of Balb/c nude mice. When the average tumor volume reached about 100 mm^3, each mouse was marked according to serial numbers, and their tumor sizes and body weights were measured, respectively. These mice were randomly allocated from small to large in terms of tumor volume, and each group of animals was appropriately adjusted to make the average body weights of the groups in a same level. […] The administration was started on the day of allocation, twice per day for 14 days. During the administration, the tumor volumes and body weights were measured twice per week. The mice were sacrificed at the end of the experiment, and the spleen was isolated and weighted. During the experiment, the maximum long diameter (L) and the maximum transverse diameter in the vertical direction (W) of the tumor were measured to calculate the tumor volume (V) according to V (mm^3)=L×W^2/2. […] T0 represents the average tumor volume of the treatment group when being allocated; Vt represents the average tumor volume measured every time in the control group; V0 represents the average tumor volume of the control group when being allocated.

The target of data set [2] is JAK2 kinase (V617F mutant type, JAK2^V617F) (Homo sapiens (Human), UniProt O60674, V617F). As to the kind of experiment: HTRF assay for enzymatic activity (IC50), JAK2 V617F mutant type. Conditions: ATP at Km, 120 min, 23 °C. The data set is classed as biochemical. The procedure: (§1) 1. Assay for Enzymatic Activity (IC50) of Compounds
Chain of JAK2 kinase (V617F mutant type, JAK2^V617F) (O60674 whole entry V617F): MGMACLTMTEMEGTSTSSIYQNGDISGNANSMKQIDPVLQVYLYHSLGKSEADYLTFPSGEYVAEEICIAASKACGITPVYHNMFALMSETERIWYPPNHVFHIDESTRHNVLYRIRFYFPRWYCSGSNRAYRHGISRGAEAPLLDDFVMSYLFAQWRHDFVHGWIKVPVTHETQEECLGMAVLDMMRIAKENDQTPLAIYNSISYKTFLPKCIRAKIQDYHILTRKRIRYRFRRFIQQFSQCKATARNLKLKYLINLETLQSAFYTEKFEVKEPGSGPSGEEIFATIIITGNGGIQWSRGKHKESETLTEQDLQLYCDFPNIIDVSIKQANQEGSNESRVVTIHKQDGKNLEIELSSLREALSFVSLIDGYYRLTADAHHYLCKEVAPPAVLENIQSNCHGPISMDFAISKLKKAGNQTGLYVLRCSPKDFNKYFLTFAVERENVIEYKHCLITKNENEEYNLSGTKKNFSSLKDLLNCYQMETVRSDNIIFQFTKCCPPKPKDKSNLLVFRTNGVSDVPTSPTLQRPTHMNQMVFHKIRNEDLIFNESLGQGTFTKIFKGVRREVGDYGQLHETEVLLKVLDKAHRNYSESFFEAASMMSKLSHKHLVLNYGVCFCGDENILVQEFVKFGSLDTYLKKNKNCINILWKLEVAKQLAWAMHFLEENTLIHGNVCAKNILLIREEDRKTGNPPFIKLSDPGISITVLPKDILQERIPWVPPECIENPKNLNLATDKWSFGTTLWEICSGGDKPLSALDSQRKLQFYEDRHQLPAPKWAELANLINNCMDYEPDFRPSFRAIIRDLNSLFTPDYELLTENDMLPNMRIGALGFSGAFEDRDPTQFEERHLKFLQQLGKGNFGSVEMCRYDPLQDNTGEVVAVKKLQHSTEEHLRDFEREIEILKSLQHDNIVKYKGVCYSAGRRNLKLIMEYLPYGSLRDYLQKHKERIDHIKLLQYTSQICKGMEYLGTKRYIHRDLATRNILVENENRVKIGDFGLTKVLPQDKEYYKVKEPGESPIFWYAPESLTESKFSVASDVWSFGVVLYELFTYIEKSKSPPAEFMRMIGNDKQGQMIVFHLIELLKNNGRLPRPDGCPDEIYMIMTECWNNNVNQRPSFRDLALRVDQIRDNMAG
(§2) A testing platform for kinase activity of JAK2 (wild type and V617F mutant type) was established based on Homogeneous Time-Resolved Fluorescence (HTRF) assay, and the activities of the compounds were tested using the platform. The compounds were subjected to three-fold gradient dilutions with 100% DMSO with a starting concentration of 1 mM (11 dilutions in total). 4 μL of each dilution was added to 96 μL of reaction buffer (50 mM HEPES, pH 7.4, 10 mM MgCl2, 1 mM EGTA, 0.01% Tween-20, 0.005% BAS, 2 mM DTT) and mixed homogeneously. […] The mixture was mixed homogeneously by centrifugation. […] The plate was incubated in the incubator for 1 hr, and then the fluorescence values were read on Envision (available from PerkinElmer). […] The enzymatic activity was representd by a ratio of the two readout at the two emission wavelengths. The enzymatic activity for each compound was tested at 11 concentrations, and IC50 values of the compounds were obtained by calculating the data using GraFit6.0 software (Erithacus Software). 2. Assay for cell proliferation activity (IC50) of compounds
In general terms: In TR-FRET formats the signal depends on donor and acceptor labels being close together.

Data set [3] addresses JAK2 kinase (wild type, JAK2^WT) (Homo sapiens (Human), UniProt O60674). Description: HTRF assay for enzymatic activity (IC50), JAK2 wild type. The data set is classed as biochemical. Conditions: ATP at Km, 120 min, 23 °C. Here is the method: as §1, §2
The next data set relates to HEL (JAK2^V617F) cells. Description: Cell proliferation assay (CellTiter-Blue, 72 hrs). The format is cell-based. The conditions noted are these: Homo sapiens; 72 hrs of treatment. (Resazurin is reduced to fluorescent resorufin, in cell work by metabolically active cells.)
Another data set in a line: in vivo. Conditions: male, Sprague-Dawley, rat, plasma, po, 5 mg/kg.
For data set [4] the following is noted: 0.5% MC, FDA pharmacology review, cited from earlier work.
The conditions of data set [5]: rats, 30 mg/kg PO; FDA pharmacology review; cited from earlier work.
The conditions of data set [6]: dogs, male, FDA pharmacology review, cited from earlier work.

Structures can show the parent of a compound that is named as a salt. Where two headings read alike, the source gives them in different places. Some results are limits rather than exact numbers.

Chain of JAK2 kinase (wild type, JAK2^WT) (O60674 whole entry): as the sequence (O60674 whole entry V617F) above, with F617V counted along it
Procedure for HEL (JAK2^V617F) cells: In the tests of compounds, HEL cells were plated in a 96-well plate (Corning) at a density of 3000 cells/195 μL per well. The compounds were subjected to three-fold gradient dilutions with a starting concentration of 10 mM (11 dilutions in total). […] 5 μL of the resulting liquid was then added to 195 μL of the cell culture medium (the final concentration in DMSO is 0.1%, v/v). After 72 hrs of treatment, 35 μL of CellTiter-Blue® (available from Promega) was added. The fluorescent signals were detected on Flex Station3 (Molecular Devices) in accordance with the protocols described in the instructions. The IC50 values of the compounds in inhibiting cell proliferation were calculated using GraphPad Prism 5.0.
Procedure for in vivo: The rats were allocated with three rats per group, and separately orally administered the suspension of a sample to be tested (5 mg/kg or 15 mg/kg) by single intragastric administration. […] After the animals were narcotized with isoflurane using an anaesthesia machine for small animals, 0.3 mL of whole blood was drawn from fundus venous plexus, and placed in a heparin anticoagulant tube. At 4° C., the sample was centrifuged at 4000 rpm for 5 min, and plasma was transferred to a centrifuge tube and preserved at −80° C. until the analysis was started. The sample in plasma was extracted by the protein precipitation method, and the extract liquid was analyzed by LC/MS/MS.

One may read the half-life as the time in which the quantity being followed falls by half. Low values mean rapid decline, high ones slow decline. For orientation: Cmax means the peak of the concentration-time curve. Broadly, the Tmax is the time from dosing to the highest level. In [1], `N#CC[C@H](C1CCCC1)n1cc(-c2ncnc3[nH]ccc23)c(N)n1` [(3R)-3-[3-amino-4-(7H-pyrrolo[2,3-d]pyrimidin-4-yl)-1H-pyrazol-1-yl]-3-cyclopentylpropanenitrile hydrochloride] showed a half-life of 117 min. In addition, in data set [1] (read-out: AUCINFobs), the AUC(0-inf) was found to be 5760 ng·h/mL. Further, in data set [1] (read-out: Cmax), the Cmax was determined as 2350 ng/mL. Further, the Tmax in data set [1] (read-out: Tmax) is 19.8 min. Besides, the “TGI (%) 3 d” value amounted to 45.45% in the data set with Ba/F3-JAK2V617F tumor (25 mg/kg PO BID), 41.77% in the data set on Ba/F3-JAK2V617F tumor (50 mg/kg PO BID) and 91.62% with Ba/F3-JAK2V617F tumor (100 mg/kg PO BID). Further, the “TGI (%) 7 d” value in the data set on Ba/F3-JAK2V617F tumor (25 mg/kg PO BID) amounted to 16.85%; with Ba/F3-JAK2V617F tumor (50 mg/kg PO BID), 43.60%; in the data set on Ba/F3-JAK2V617F tumor (100 mg/kg PO BID), 79.76%. Besides, the figures for the “TGI (%) 10 d” value in the data set on Ba/F3-JAK2V617F tumor (25 mg/kg PO BID), with Ba/F3-JAK2V617F tumor (50 mg/kg PO BID) and in the data set with Ba/F3-JAK2V617F tumor (100 mg/kg PO BID) were 54.49%, 65.19% and 89.37%, respectively. Moreover, the “TGI (%) 14 d” value in the data set with Ba/F3-JAK2V617F tumor (25 mg/kg PO BID) was 40.74%; with Ba/F3-JAK2V617F tumor (50 mg/kg PO BID, hydrochloride), 68.40%; in the data set with Ba/F3-JAK2V617F tumor (50 mg/kg PO BID, listed as hydrochloride of the compound of Example 5, hydrochloride), 68.4%; in the data set on Ba/F3-JAK2V617F tumor (100 mg/kg PO BID, hydrochloride) it was 85.76%; in the data set on Ba/F3-JAK2V617F tumor (100 mg/kg PO BID, listed as hydrochloride of the compound of Example 5, hydrochloride) it was 85.8%. Further, the “inhibitory effect on Ba/F3-JAK2V617F tumor growth” value in the data set on Ba/F3-JAK2V617F tumor (25, 50, 100 mg/kg PO BID for 14 days) is reported as “dose-dependent inhibitory effect”.
As a reminder, the IC50 is the concentration needed to halve the response being measured. As to `N#CCC(C1CCCC1)n1cc(-c2ncnc3[nH]ccc23)c(N)n1` (stereo not drawn) [Example 1, 3-[3-amino-4-(7H-pyrrolo[2,3-d]pyrimidin-4-yl)-1H-pyrazol-1-yl]-3-cyclopentylpropanenitrile], the IC50 in data set [2] and in data set [3] was below 20 nM in each case.
For the compound `CCNc1nn(C(CC#N)C2CCCC2)cc1-c1ncnc2[nH]ccc12` (stereo not drawn) [Example 7, 3-[3-ethylamino-4-(7H-pyrrolo[2,3-d]pyrimidin-4-yl)-1H-pyrazol-1-yl]-3-cyclopentylpropanenitrile], the IC50 in data set [2] is below 20 nM. The same compound registered an IC50 in the data set with HEL (JAK2^V617F) cells below 200 nM. Also, the IC50 in [3] is below 20 nM. Also, in “in vivo”, the AUC(0-inf) was found to be 20 ng·h/mL, the Cmax was determined as 13.5 ng/mL, the Tmax is 19.8 min and the half-life is 30 min.
On to `N#CC[C@H](C1CCCC1)n1cc(-c2ncnc3[nH]ccc23)cn1` [Ruxolitinib Phosphate], for which, in data set [4] (female rats, oral 15 mg/kg), the “AUCINF—obs” value is 336 ng·h/mL, the “Cmax” value is 267 ng/mL, the “T1/2” value was 119 min and the “Tmax” value was 30 min. Besides, in data set [4] (male rats, oral 5 mg/kg), the “AUCINF—obs” value is 3.33 ng·h/mL, the “Cmax” value is 4.69 ng/mL and the “Tmax” value is 30 min.
Regarding `N#CC[C@H](C1CCCC1)n1cc(-c2ncnc3[nH]ccc23)cn1` [Ruxolitinib], in [5], the AUCINFobs was 1345 ng·h/mL, the Cmax was 1143 ng/mL, the Tmax is 30 min and the t1/2 was 73.2 min. In addition, in data set [6] (IV 5 mg/kg), the “AUCINF—obs” value is 13776 ng·h/mL, the Cl_obs was 8 mL/min/kg, the Vss_obs was 1.1 L/kg and the t1/2 is 150 min. In data set [6] (PO 10 mg/kg), the “AUCINF—obs” value is 15716 ng·h/mL, the Cmax is 3519 ng/mL, the F is 57% and the Tmax is 120 min. Besides, the t1/2 in data set [6] (PO 10 mg/kg) was 132 min.
